Data on three compounds can be found in paper PMC12030165, “Bioactivity of Synthesized Trifluoromethyl Thioxanthone Analogues” (Pharmaceuticals, 2025).

The target of assay [1] is T1, porcine pancreatic lipase (Sus scrofa, UniProt P00591).
T1 construct: purchased Sigma-Aldrich (Missouri, MO, USA)
T1 sequence (P00591 1-450): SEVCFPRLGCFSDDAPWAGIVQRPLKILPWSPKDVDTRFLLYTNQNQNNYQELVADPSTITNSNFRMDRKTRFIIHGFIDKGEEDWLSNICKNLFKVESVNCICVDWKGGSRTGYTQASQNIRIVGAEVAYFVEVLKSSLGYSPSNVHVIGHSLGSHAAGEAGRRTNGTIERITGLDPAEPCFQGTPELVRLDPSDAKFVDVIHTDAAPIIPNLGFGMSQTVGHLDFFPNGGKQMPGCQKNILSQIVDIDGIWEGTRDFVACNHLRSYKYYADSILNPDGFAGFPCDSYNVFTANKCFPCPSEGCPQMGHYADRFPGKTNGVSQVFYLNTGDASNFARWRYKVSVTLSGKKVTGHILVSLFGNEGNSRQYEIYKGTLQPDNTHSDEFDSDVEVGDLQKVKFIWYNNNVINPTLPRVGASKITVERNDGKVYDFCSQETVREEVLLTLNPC
Put plainly: Inhibition assay of pancreatic lipase enzyme (PNPB). The class given is biochemical. Here is the method: A stock solution of 1 mg/mL (1000 μg/mL) was prepared for each product using 10% DMSO. This stock solution created […] different concentrations at 20, 50, and 70 μg/mL. A fresh stock solution of pancreatic lipase enzyme was prepared immediately before use. […] In the experiment, 0.1 mL of the 1 mg/mL porcine pancreatic lipase solution was added to test tubes containing 0.2 mL of each of the various concentrations of the products. The mixtures were then brought to a final volume of 1 mL by adding a Tris-HCl solution (pH 7.4) and were incubated at 25 °C for 15 min. After the incubation period, 0.1 mL of the PNPB solution was added to each test tube, and the mixtures were incubated again for 30 min at 37 °C. The activity of pancreatic lipase was measured by assessing the hydrolysis of p-nitrophenyl butyrate to p-nitrophenol at a wavelength of 410 nm using a UV-visible spectrophotometer.

A further assay concerns HeLa cells. Put plainly: Cytotoxicity (MTS) against HeLa cells. The class given is cell-based. The note with it: for IC50: Homo sapiens, HeLa, concentration range 100–20,000 nM, read-out: IC50 of inhibition activity against Hela cells. As to the method:
RPMI-1640 medium was used to culture cervical adenocarcinoma (HeLa) cancer cells, supplemented with 10% fetal bovine serum, 1% penicillin/streptomycin, and 1% L-glutamine. The HeLa cells were grown in a humidified environment at 37 °C with a 5% CO2 atmosphere. A 96-well plate was employed for seeding the cells at a density of 2.6 × 10^4 cells per well. Following a 24-h incubation, the cells were treated with various concentrations of the tested (AO) fractions. Cell viability was assessed using the Cell Titer 96® Aqueous One Solution Cell Proliferation (MTS) assay, following the manufacturer’s instructions (Promega Corporation, Wisconsin, WI, USA). Briefly, at the end of the treatment, 20 µL of MTS solution was added to each well containing 100 µL of media, and the cells were incubated at 37 °C for 2 h. The absorbance was measured using a UV-visible spectrophotometer at a wavelength of 490 nm.

For the compound “S-(9-benzyl-2-(trifluoromethyl)-9H-thioxanthen-9-yl)-L-cysteine [Compound 3]”, the midpoint of inhibition in assay [1], the IC50, lay at 277 µM.
With `OC1(c2ccccc2)c2ccccc2Sc2ccc(C(F)(F)F)cc21` (stereo not drawn) [Compound 1, 9-phenyl-2-(trifluoromethyl)-9H-thioxanthen-9-ol], the figures for the IC50 (in assay [1]; in the assay with HeLa cells) were 176 µM and 0.0878 µM, respectively. Moreover, the “% toxicity against HeLa cells” value with HeLa cells (200 nM) is reported as 93.18%.
For `OC1(Cc2ccccc2)c2ccccc2Sc2ccc(C(F)(F)F)cc21` (stereo not drawn) [Compound 2, 9-benzyl-2-(trifluoromethyl)-9H-thioxanthen-9-ol], the figures for the IC50 (in assay [1]; in the assay on HeLa cells) were 111 ± 7.5 µM and 0.169 µM, respectively.
